# Assays:
# farnesoid X receptor = molecular target: T1, farnesoid X receptor (Homo sapiens, UniProt Q96RI1); test: Luciferase reporter assay with GAL4 construct with LBD, farnesoid X receptor; assay type: cell-based; details: 10 μM/L
# T1 construct: luciferase reporter assays with a GAL4 constructs with LBD of tested nuclear receptors; expressed in transfected cells
# PPARα = molecular target: T2, PPARα (Homo sapiens, UniProt Q07869); test: Luciferase reporter assay with GAL4 construct with LBD, PPARα; assay type: cell-based; details: 10 μM/L
# T2 construct: luciferase reporter assays with a GAL4 constructs with LBD of tested nuclear receptors; expressed in transfected cells
# T2 sequence (Q07869 239-466 limits assumed): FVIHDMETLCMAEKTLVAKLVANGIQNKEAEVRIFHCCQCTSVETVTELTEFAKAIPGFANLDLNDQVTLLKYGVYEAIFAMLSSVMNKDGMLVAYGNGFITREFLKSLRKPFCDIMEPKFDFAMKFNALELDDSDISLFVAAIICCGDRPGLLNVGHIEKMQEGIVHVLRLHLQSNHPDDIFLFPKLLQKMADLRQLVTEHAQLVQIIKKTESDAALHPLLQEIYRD
# T1 sequence (Q96RI1 262-486 limits assumed): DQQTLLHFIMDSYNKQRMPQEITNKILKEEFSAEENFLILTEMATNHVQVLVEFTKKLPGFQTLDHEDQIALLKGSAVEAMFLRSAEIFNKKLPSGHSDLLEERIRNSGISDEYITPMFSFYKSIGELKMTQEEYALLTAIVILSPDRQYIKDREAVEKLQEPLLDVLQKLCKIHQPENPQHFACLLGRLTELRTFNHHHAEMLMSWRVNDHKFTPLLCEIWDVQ
smiles,measurement,setting,value
"NC(=O)c1cc(Cn2cc(-c3c(-c4ccc(Cl)cc4)nc4cc(F)ccn34)nn2)ccc1Cl [Example 93, 2-Chloro-5-((4-(2-(4-chlorophenyl)-7-fluoroimidazo[1,2-a]pyridin-3-yl)-1H-1,2,3-triazol-1-yl)methyl)benzamide]",activation of farnesoid X receptor,farnesoid X receptor,do not activate
same,activation of PPARα,PPARα,do not activate

# Reference: patent publication US20220185822A1, “SELECTIVE LIGANDS OF HUMAN CONSTITUTIVE ANDROSTANE RECEPTOR” (USTAV ORGANICKE CHEMIE A BIOCHEMIE AV CR, V.V.I., priority 2019, published 2022)
